Active and inactive are the calls of the source. No rule for the calls is given here.
Test system: CCRIS mutagenicity, Ames/micronucleus/aberration tests
Assay: CCRIS mutagenicity studies

SMILES: CCCCC(CC)COC(=O)c1ccccc1C(=O)OCC(CC)CCCC (stereo not drawn)
- mutagenic call (Test System: AMES SALMONELLA TYPHIMURIUM, Strain/Indicator: TA1535, Metabolic Activation: RAT LIVER S-9, PHENOBARBITAL AND BETA-NAPHTHOFLAVONE, Method: PREINCUBATION): inactive; negative
- mutagenic call (Test System: AMES SALMONELLA TYPHIMURIUM, Strain/Indicator: TA1535, Metabolic Activation: RAT, LIVER, S-9, AROCLOR 1254 (10%), Method: PREINCUBATION): inactive; negative
- mutagenic call (Test System: AMES SALMONELLA TYPHIMURIUM, Strain/Indicator: TA1535, Metabolic Activation: RAT, LIVER, S-9, AROCLOR 1254, Method: STANDARD PLATE): inactive; negative
- mutagenic call (Test System: AMES SALMONELLA TYPHIMURIUM, Strain/Indicator: TA1537, Metabolic Activation: HAMSTER, LIVER, S-9, AROCLOR 1254 (10%), Method: PREINCUBATION): inactive; negative
- mutagenic call (Test System: AMES SALMONELLA TYPHIMURIUM, Strain/Indicator: TA1537, Metabolic Activation: NONE, Method: FLUCTUATION (MICROTITER)): inactive; negative
- mutagenic call (Test System: AMES SALMONELLA TYPHIMURIUM, Strain/Indicator: TA1537, Metabolic Activation: NONE, Method: PREINCUBATION): inactive; negative
- mutagenic call (Test System: AMES SALMONELLA TYPHIMURIUM, Strain/Indicator: TA1537, Metabolic Activation: NONE, Method: STANDARD PLATE): inactive; negative
- mutagenic call (Test System: AMES SALMONELLA TYPHIMURIUM, Strain/Indicator: TA1537, Metabolic Activation: RAT LIVER S-9, AROCLOR 1254, Method: FLUCTUATION (MICROTITER)): inactive; negative
- mutagenic call (Test System: AMES SALMONELLA TYPHIMURIUM, Strain/Indicator: TA1537, Metabolic Activation: RAT LIVER S-9, PHENOBARBITAL AND BETA-NAPHTHOFLAVONE, Method: PREINCUBATION): inactive; negative
- mutagenic call (Test System: AMES SALMONELLA TYPHIMURIUM, Strain/Indicator: TA1537, Metabolic Activation: RAT, LIVER, S-9, AROCLOR 1254 (10%), Method: PREINCUBATION): inactive; negative
- mutagenic call (Test System: AMES SALMONELLA TYPHIMURIUM, Strain/Indicator: TA1537, Metabolic Activation: RAT, LIVER, S-9, AROCLOR 1254, Method: STANDARD PLATE): inactive; negative
- mutagenic call (Test System: AMES SALMONELLA TYPHIMURIUM, Strain/Indicator: TA1538, Metabolic Activation: NONE, Method: STANDARD PLATE): inactive; negative
- mutagenic call (Test System: AMES SALMONELLA TYPHIMURIUM, Strain/Indicator: TA1538, Metabolic Activation: RAT, LIVER, S-9, AROCLOR 1254, Method: STANDARD PLATE): inactive; negative
- mutagenic call (Test System: AMES SALMONELLA TYPHIMURIUM, Strain/Indicator: TA2638, Metabolic Activation: RAT LIVER S-9, PHENOBARBITAL AND 5,6-BENZOFLAVONE, Method: STANDARD PLATE): inactive; negative
- mutagenic call (Test System: AMES SALMONELLA TYPHIMURIUM, Strain/Indicator: TA7001, Metabolic Activation: NONE, Method: FLUCTUATION (MICROTITER)): inactive; negative
- mutagenic call (Test System: AMES SALMONELLA TYPHIMURIUM, Strain/Indicator: TA7001, Metabolic Activation: RAT LIVER S-9, AROCLOR 1254, Method: FLUCTUATION (MICROTITER)): inactive; negative
- mutagenic call (Test System: AMES SALMONELLA TYPHIMURIUM, Strain/Indicator: TA7002, Metabolic Activation: NONE, Method: FLUCTUATION (MICROTITER)): inactive; negative
- mutagenic call (Test System: AMES SALMONELLA TYPHIMURIUM, Strain/Indicator: TA7002, Metabolic Activation: RAT LIVER S-9, AROCLOR 1254, Method: FLUCTUATION (MICROTITER)): inactive; negative
- mutagenic call (Test System: AMES SALMONELLA TYPHIMURIUM, Strain/Indicator: TA7003, Metabolic Activation: NONE, Method: FLUCTUATION (MICROTITER)): inactive; negative
- mutagenic call (Test System: AMES SALMONELLA TYPHIMURIUM, Strain/Indicator: TA7003, Metabolic Activation: RAT LIVER S-9, AROCLOR 1254, Method: FLUCTUATION (MICROTITER)): inactive; negative
- mutagenic call (Test System: AMES SALMONELLA TYPHIMURIUM, Strain/Indicator: TA7004, Metabolic Activation: NONE, Method: FLUCTUATION (MICROTITER)): inactive; negative
- mutagenic call (Test System: AMES SALMONELLA TYPHIMURIUM, Strain/Indicator: TA7004, Metabolic Activation: RAT LIVER S-9, AROCLOR 1254, Method: FLUCTUATION (MICROTITER)): inactive; negative
- mutagenic call (Test System: AMES SALMONELLA TYPHIMURIUM, Strain/Indicator: TA7005, Metabolic Activation: NONE, Method: FLUCTUATION (MICROTITER)): inactive; negative
- mutagenic call (Test System: AMES SALMONELLA TYPHIMURIUM, Strain/Indicator: TA7005, Metabolic Activation: RAT LIVER S-9, AROCLOR 1254, Method: FLUCTUATION (MICROTITER)): inactive; negative
- mutagenic call (Test System: AMES SALMONELLA TYPHIMURIUM, Strain/Indicator: TA7006, Metabolic Activation: NONE, Method: FLUCTUATION (MICROTITER)): inactive; negative
- mutagenic call (Test System: AMES SALMONELLA TYPHIMURIUM, Strain/Indicator: TA7006, Metabolic Activation: RAT LIVER S-9, AROCLOR 1254, Method: FLUCTUATION (MICROTITER)): inactive; negative
- mutagenic call (Test System: E. COLI, Strain/Indicator: WP2 (PKM101), Metabolic Activation: RAT LIVER S-9, PHENOBARBITAL, AND 5,6-BENZOFLAVONE, Method: STANDARD PLATE): inactive; negative
- mutagenic call (Test System: E. COLI, Strain/Indicator: WP2 UVRA (PKM101), Metabolic Activation: RAT LIVER S-9, PHENOBARBITAL AND 5,6-BENZOFLAVONE, Method: STANDARD PLATE): inactive; negative
- mutagenic call (Test System: E.COLI, Strain/Indicator: WP2UVRA, Metabolic Activation: NONE, Method: PREINCUBATION): inactive; negative
- mutagenic call (Test System: E.COLI, Strain/Indicator: WP2UVRA, Metabolic Activation: RAT LIVER S-9, PHENOBARBITAL AND BETA-NAPHTHOFLAVONE, Method: PREINCUBATION): inactive; negative
- mutagenic call (Test System: MOUSE LYMPHOMA, Strain/Indicator: L5178Y (TK+/+)/OUABAIN, Metabolic Activation: NONE, Method: SUSPENSION/PLATE): inactive; negative
- mutagenic call (Test System: MOUSE LYMPHOMA, Strain/Indicator: L5178Y (TK+/+)/OUABAIN, Metabolic Activation: RAT LIVER S-9, AROCLOR 1254, Method: SUSPENSION/PLATE): inactive; negative
- mutagenic call (Test System: MOUSE LYMPHOMA, Strain/Indicator: L5178Y (TK+/-)/TRIFLUROTHYMIDINE, Metabolic Activation: NONE, Method: SUSPENSION/PLATE): inactive; negative
- mutagenic call (Test System: MOUSE LYMPHOMA, Strain/Indicator: L5178Y (TK+/-)/TRIFLUROTHYMIDINE, Metabolic Activation: RAT LIVER S-9, AROCLOR 1254, Method: SUSPENSION/PLATE): inactive; negative
- mutagenic call (Test System: MOUSE LYMPHOMA, Strain/Indicator: L5178Y (TK+/TK-), Metabolic Activation: NONE, Method: SUSPENSION/PLATE): inactive; negative
- mutagenic call (Test System: MOUSE LYMPHOMA, Strain/Indicator: L5178Y (TK+/TK-), Metabolic Activation: RAT, LIVER, S-9, AROCLOR 1254, Method: SUSPENSION/PLATE): active; positive
- mutagenic call (Test System: MOUSE LYMPHOMA, Strain/Indicator: L5178Y (TK+/TK-), Metabolic Activation: RAT, LIVER, S-9, Method: SUSPENSION/PLATE): inactive; negative
- mutagenic call (Test System: UDS RAT HEPATOCYTES, Strain/Indicator: THY INCORP, Metabolic Activation: NONE, Method: LIQUID SCINTILLATION COUNTING): active; positive

Source: PubChem BioAssay AID1259407 (Chemical Carcinogenesis Research Information System (CCRIS), 2018)
